According to US11285156B2, “Substituted piperazines as KRAS G12C inhibitors” (Amgen Inc., priority 2018, dated 2022):
Like-named read-outs stand apart in the source and are kept apart here.

What was measured:
[1] = system: Phosphorylation of ERK1/2 in A549 cells; test: Phospho-ERK1/2 MSD assay in A549 cells; assay type: cell-based; conditions: read-out: p-ERK IC50 (2 h, A549; μM)
Procedure, shortened: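 Readout: MSD phospho-ERK1/2 signal after compound (2 or 4 h) and 10 min EGF stimulation at 10 ng/mL.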

[2] = system: Phosphorylation of ERK1/2 in MIA PaCa-2 cells; test: Phospho-ERK1/2 MSD assay in MIA PaCa-2 cells; assay type: cell-based; conditions: read-out: p-ERK IC50 (2 h, MiaPaCa-2; μM)
Procedure, shortened: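 Phospho-ERK1/2 measured by MSD electrochemiluminescence kit in RIPA lysates of MIA PaCa-2 cells. Cells were treated with compound titrations for 2 or 4 h at 37 °C, 5% CO2, followed by a 10 min pulse of 10 ng/mL EGF.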

[3] = molecular target: GDP-bound KRAS protein (aa 1-169), containing both G12C and C118A amino acid substitutions (Homo sapiens (Human), UniProt P01116, C118A/G12C); test: Coupled nucleotide exchange assay (SOS-mediated nucleotide exchange, AlphaScreen); assay type: biochemical; conditions: read-out: Coupled exchange IC50 (5 min; μM); 5 min compound pre-incubation
Sequence of GDP-bound KRAS protein (aa 1-169), containing both G12C and C118A amino acid substitutions (P01116 other isoform, or with tags, fused parts or gaps G12C/C118A): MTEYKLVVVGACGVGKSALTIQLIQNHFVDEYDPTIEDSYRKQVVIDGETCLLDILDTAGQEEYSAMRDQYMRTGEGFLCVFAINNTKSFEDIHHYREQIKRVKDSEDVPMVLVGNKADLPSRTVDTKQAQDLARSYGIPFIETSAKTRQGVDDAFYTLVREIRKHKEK

[4] = 2 h compound treatment, MIA PaCa-2 cells, EGF stimulated
[5] = Homo sapiens, A549, 2 h, 2 h compound treatment, A549 cells, EGF stimulated
[6] = Homo sapiens, MIA PaCa-2, 2 h, 2 h compound treatment, MIA PaCa-2 cells, EGF stimulated

| SMILES | IC50 ([1]; 2 h compound treatment, A549 cells, EGF stimulated) | IC50 [2, 4] | IC50 [3] | IC50 [1, 5] | IC50 [2, 6] | IC50 ([1]; Homo sapiens, A549, 2 h) | IC50 ([2]; Homo sapiens, MIA PaCa-2, 2 h) |
| --- | --- | --- | --- | --- | --- | --- | --- |
| C=CC(=O)N1[C@H](C)CN(c2nc(=O)n(-c3c(C(C)C)ccnc3C(C)C)c3nc(-c4ccccc4C)c(Cl)cc23)C[C@@H]1C [Example 125-11, 6-Chloro-1-(2,4-diisopropyl-3-pyridyl)-4-[(3R,5S)-3,5-dimethyl-4-prop-2-enoyl-piperazin-1-yl]-7-(o-tolyl)pyrido[2,3-d]pyrimidin-2-one] | > 7.5 µM | 0.187 µM | 0.091 µM |  |  |  |  |
| C=CC(=O)N1C[C@H](C)N(c2nc(=O)n(-c3c(C)ccnc3C(C)C)c3nc(-c4cccc(F)c4NC(C)=O)c(Cl)cc23)C[C@H]1C [Example 129-12, N[2-(6-Chloro-4-[(2S,5R)-2,5-dimethyl-4-prop-2-enoyl-piperazin-1-yl]-1-(2-isopropyl-4-methyl-3-pvridyl)-2-oxo-pyrido[2,3-d]pyrimidin-7-yl]-6-fluoro-phenyl]acetamide] |  |  | 0.167 µM | > 7.5 µM | 0.39 µM |  |  |
| C=CC(=O)N1C[C@H](C)N(c2nc(=O)n(-c3c(CN4CCCC4)ccnc3C(C)C)c3nc(-c4ccccc4C(C)C)c(Cl)cc23)C[C@H]1C [Example 141-3, 6-Chloro-4-[(2S,5R)-2,5-dimethyl-4-prop-2-enoyl-piperazin-1-yl]-7-(2-isopropylphenyl)-1-[2-isopropyl-4-(pyrrolidin-1-ylmethyl)-3-pyridyl]pyrido[2,3-d]pyrimidin-2-one] |  |  | 0.197 µM | > 7.5 µM | 0.331 µM |  |  |
| C=CC(=O)N1CCN(c2nc(=O)n(CC(C)(C)C)c3nc(-c4ccccc4F)c(Cl)cc23)CC1CC#N (stereo not drawn) [Example 145-1, 2-[4-[6-Chloro-1-(2,2-dimethylpropyl)-7-(2-fluorophenyl)-2-oxo-pyrido[2,3-d]pyrimidin-4-yl]-1-prop-2-enoyl-piperazin-2-yl]acetonitrile] |  | 10 µM | 2.07 µM | 5.75 µM |  |  |  |
| C=CC(=O)N1CCN(c2nc(=O)n(CC(C)(C)C)c3nc(-c4ccccc4F)c(Cl)cc23)C(CC#N)C1 (stereo not drawn) [Example 145-3, 2-[1-[6-Chloro-1-(2,2-dimethypropyl)-7-(2-fluorophenyl)-2-oxo-pyrido[2,3-d]pyrimidin-4-yl]-4-prop-2-enoyl-piperazin-2-yl]acetonitrile] |  |  | 3.82 µM | 4.41 µM | 10 µM |  |  |
| C=CC(=O)N1C[C@H](C)N(c2nc(=O)n3c4nc(c(Cl)cc24)-c2ccccc2OC/C=C/Cc2ccccc2-3)C[C@H]1C [Example 146-4, 20-chloro-23-((2S,5R)-2,5-dimethyl-4-(2-propenoyl)-1-piperazinyl)-12-oxa-1,24,27-triazapentacyclo[17.6.2.0~2,7~.0~13,18~.0~22,26~]heptacosa-2,4,6,9,13,15,17,19,21,23,26-undecaen-25-one] |  |  | 8.13 µM | > 7.5 µM | 4.19 µM |  |  |
| C=CC(=O)N1C[C@H](C)N(c2nc(=O)n(-c3c(C(C)C)ncnc3C(C)C)c3nc(-c4ccc(F)cc4F)c(F)cc23)C[C@H]1C [Example 153, 7-(2,4-Difluorophenyl)-1-(4,6-diisopropylpyrimidin-5-yl)-4-[(2S,5R)-2,5-dimethyl-4-prop-2-enoyl-piperazin-1-yl]-6-fluoro-pyrido[2,3-d]pyrimidin-2-one] |  |  | 0.38 µM | > 7.5 µM | 0.264 µM |  |  |
| C=CC(=O)N1C[C@H](C)N(c2nc(=O)n(-c3c(C(C)C)nc(OC)nc3C(C)C)c3nc(-c4ccccc4F)c(Cl)cc23)C[C@H]1C [Example 154, 6-Chloro-1-(4,6-diisopropyl-2-methoxy-pyrimidin-5-yl)-4-[(2S,5R)-2,5-dimethyl-4-prop-2-enoyl-piperazin-1-yl]-7-(2-fluorophenyl)pyrido[2,3-d]pyrimidin-2-one] |  |  | 0.062 µM | 6.96 µM | 0.049 µM |  |  |
| C=CC(=O)N1C[C@H](C)N(c2nc(=O)n(-c3c(C(C)C)nc(C#N)nc3C(C)C)c3nc(-c4ccccc4F)c(Cl)cc23)C[C@H]1C [Example 155, 5-[6-Chloro-4-[(2S,5R)-2,5-dimethyl-4-prop-2-enoyl-piperazin-1-yl]-7-(2-fluorophenyl)-2-oxo-pyrido[2,3-d]pyrimidin-1-yl]-4,6-diisopropyl-pyrimidine-2-carbonitrile] |  |  | 0.104 µM | 2.59 µM | 0.063 µM |  |  |
| C=CC(=O)N1C[C@H](C)N(c2nc(=O)n(-c3c(C(C)C)nc(OCCOC)nc3C(C)C)c3nc(-c4ccccc4F)c(Cl)cc23)C[C@H]1C [Example 156, 4-((2S,5R)-4-Acryloyl-2,5-dimethylpiperazin-1-yl)-6-chloro-1-(4,6-diisopropyl-2-(2-methoxyethoxy)pyrimidin-5-yl)-7-(2-fluorophenyl)pyrido[2,3-d]pyrimidin-2(1H)-one] |  |  | 0.369 µM | > 7.5 µM | 0.148 µM |  |  |
| C=CC(=O)N1C[C@H](C)N(c2nc(=O)n(-c3c(C(C)C)nc(OCCN(C)C)nc3C(C)C)c3nc(-c4ccccc4F)c(Cl)cc23)C[C@H]1C [Example 157, 4-((2S,5R)-4-Acryloyl-2,5-dimethylpiperazin-1-yl)-6-chloro-1-(2-(2-(dimethylamino)ethoxy)-4,6-diisopropylpyrimidin-5-yl)-7-(2-fluorophenyl)pyrido[2,3-d]pyrimidin-2(1H)-one] |  |  | 0.064 µM | > 7.5 µM | 0.07 µM |  |  |
| C=CC(=O)N1C[C@H](C)N(c2nc(=O)n(-c3c(C(C)C)nc(S(=O)(=O)CCC)nc3C(C)C)c3nc(-c4ccccc4F)c(Cl)cc23)C[C@H]1C [Example 158, 4-((2S,5R)-4-Acryloyl-2,5-dimethylpiperazin-1-yl)-6-chloro-1-(4,6-diisopropyl-2-(propylsulfonyl)pyrimidin-5-yl)-7-(2-fluorophenyl)pyrido[2,3-d]pyrimidin-2(1H)-one] |  |  | 0.189 µM | 3.83 µM | 0.191 µM |  |  |
| C=CC(=O)N1C[C@H](C)N(c2nc(=O)n(-c3c(C(C)C)nc(C=C)nc3C(C)C)c3nc(-c4ccccc4F)c(Cl)cc23)C[C@H]1C [Example 159, 4-((2S,5R)-4-Acryloyl-2,5-dimethylpiperazin-1-yl)-6-chloro-1-(4,6-diisopropyl-2-vinylpyrimidin-5-yl)-7-(2-fluorophenyl)pyrido[2,3-d]pyrimidin-2(1H)-one] |  |  | 0.046 µM | 3.04 µM | 0.119 µM |  |  |
| C=CC(=O)N1C[C@H](C)N(c2nc(=O)n(-c3c(C(C)C)nc(CN4CCC4)nc3C(C)C)c3nc(-c4ccccc4F)c(Cl)cc23)C[C@H]1C [Example 161, 1-[2-(Azetidin-1-ylmethyl)-4,6-diisopropyl-pyrimidin-5-yl]-6-chloro-4-[(2S,5R)-2,5-dimethyl-4-prop-2-enoyl-piperazin-1-yl]-7-(2-fluorophenyl)pyrido[2,3-d]pyrimidin-2-one] |  |  | 0.294 µM |  |  | > 7.5 µM | 0.061 µM |
| C=CC(=O)N1C[C@H](C)N(c2nc(=O)n(-c3c(C(C)C)nc(CN4CCOCC4)nc3C(C)C)c3nc(-c4ccccc4F)c(Cl)cc23)C[C@H]1C [Example 162, 6-Chloro-1-[4,6-diisopropyl-2-(morpholinomethyl)pyrimidin-5-yl]-4-[(2S,5R)-2,5-dimethyl-4-prop-2-enoyl-piperazin-1-yl]-7-(2-fluorophenyl)pyrido[2,3-d]pyrimidin-2-one] |  |  | 0.133 µM | > 7.5 µM | 0.078 µM |  |  |
